For 44 compounds, IC50 results are on record in US12012467B2, “Small molecule DCN1 inhibitors and therapeutic methods using the same” (THE REGENTS OF THE UNIVERSITY OF MICHIGAN, priority 2017, dated 2024).

This assay concerns the target DCN1 (Homo sapiens (Human), UniProt Q96GG9). Briefly: Competitive FP binding assay. On the procedure:
Competitive FP Binding Assay
The Fluorescence Polarization (FP) competitive binding assays were performed to accurately determine the binding affinities of our DCN1 inhibitors. […] Serial dilutions of proteins were mixed with 46 to a final volume of 200 μl in the assay buffer (100 mM phosphate buffer, pH=6.5, with 0.02% Tween-20 and 2% DMSO). Final probe concentration was 5 nM for both assays. Plates were incubated at room temperature for 30 minutes with gentle shaking to assure equilibrium.
Pure proteins were derived from the same expression and purification protocols. Plasmids were transformed into Rosetta2 cells, the cells were grown in Terrific Broth at 37° C. to an O.D.600>1.0 and induced with 0.4 mM Isopropyl (3-D-1-thiogalactopyranoside overnight at 20° C. The pelleted cells were resuspended in lysis buffer containing 25 mM Tris-HCl, pH 7.5, 200 mM NaCl and protease inhibitors, sonicated and centrifuged at 34,000×g for 45 minutes to remove debris. Cleared lysate was incubated with Ni-NTA resin (Qiagen) prewashed with lysis buffer, for 1 hr at 4° C. The matrix was loaded into a column then washed with 25 mM Tris-HCl, pH 7.5, 200 mM NaCl and 10 mM imidazole. Protein was eluted with 25 mM Tris-HCl, pH 7.5, 200 mM NaCl and 300 mM imidazole, concentrated and applied to a Superdex 75 (GE Healthcare) column pre-equilibrated with 25 mM Tris pH 7.5, 200 mM NaCl and 1 mM DTT. For DCN2-5, the N-terminal His6 tag was removed prior to gel filtration. Tag removal was achieved through incubation with TEV protease during overnight dialysis against 25 mM Tris pH 7.5, 200 mM NaCl and 1 mM DTT and a second Ni-NTA column. DCN2-5 proteins were stored at −80° C. in 1 mg/mL fractions containing 5% glycerol. The uncleaved DCN1 protein was stored at −80° C. without glycerol.

Where [1] appears, read: read-out: Binding affinity to DCN1 (IC50 (nM)).
Where [2] appears, read: bounds given in μM, read-out: Binding affinity to DCN1 (IC50).

Like-named read-outs stand apart in the source and are kept apart here. Square brackets hold non-standard residues; d marks the D form. Peptide text beside a SMILES is read from it. * marks the point of attachment. Ala(6-iPr-benzothiazol-2-yl) = CC(C)c1ccc2nc(C[C@H](N)C(=O)O)sc2c1; Gly(piperidin-4-yl) = N[C@H](C(=O)O)C1CCNCC1; 2Nal = N[C@@H](Cc1ccc2ccccc2c1)C(=O)O; Gly(cPent) = N[C@H](C(=O)O)C1CCCC1; dLac = C[C@@H](O)C(=O)O; Propionyl = CCC(=O)*; NHPh = c1ccc(N*)cc1 A value given as a limit tells only on which side of the number the result lay.

DCN1, sequence (Q96GG9 58-259): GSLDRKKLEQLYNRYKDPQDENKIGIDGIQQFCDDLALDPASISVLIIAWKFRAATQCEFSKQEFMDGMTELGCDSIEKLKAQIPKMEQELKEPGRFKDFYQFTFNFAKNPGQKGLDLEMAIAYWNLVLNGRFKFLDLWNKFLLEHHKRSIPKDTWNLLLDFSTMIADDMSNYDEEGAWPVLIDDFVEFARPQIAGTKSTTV

Usually IC50 stands for the concentration at which inhibition is half-maximal. In the case of `CCC(=O)N[C@@H](Cc1nc2ccc(Cl)cc2s1)C(=O)N[C@H](C(=O)N[C@@H](CCCCN)C(=O)NC(c1ccccc1)c1ccccc1)C1CCCC1` [Example 30], the IC50 under setting [1] worked out at 193 nM.
Still for that read-out and setting: then `CCC(=O)N[C@@H](Cc1nc2ccccc2s1)C(=O)N[C@H](C(=O)N[C@@H](CCCCN)C(=O)NC(c1ccccc1)c1ccccc1)[C@@H](C)CC` [Example 152], with 376 nM.
As to `CN(C)CCCC[C@H](NC(=O)[C@@H](NC(=O)[C@@H](N)Cc1nc2ccc(Cl)cc2s1)C1CCCC1)C(=O)N[C@@H]1CCOc2ccccc21` [Example 205], under setting [2], the IC50 is > 10000 nM.
In the case of `CCC(=O)N[C@@H](Cc1nc2ccc(Cl)cc2s1)C(=O)N[C@H](C(=O)N[C@@H](CCCCN)C(=O)N[C@H]1CNCc2ccccc21)C1CCCC1` [Example 162], under setting [1], the IC50 came out at 797 nM.
Consider `CCC(=O)N[C@@H](Cc1ccc2ccccc2c1)C(=O)N[C@H](C(=O)N[C@@H](CCCCN)C(=O)N[C@@H](c1ccccc1)c1cn(CCN)nn1)C1CCCC1` [Example 161], for which the IC50 under setting [1] was found to be 943 nM.
As for `CCC(=O)N[C@@H](Cc1nc2ccc(C(C)C)cc2s1)C(=O)N[C@@H](C)C(=O)N[C@@H](CCCCN)C(=O)N[C@@H](CC(C)C)C(N)=O` [Example 280] (Propionyl-[Ala(6-iPr-benzothiazol-2-yl)]AKL-NH2), under setting [1], the IC50 is 69.4 nM.
For `CCC(=O)N[C@@H](Cc1ccc2ccccc2c1)C(=O)N[C@H](C(=O)N[C@@H](CCCCN)C(=O)Nc1ccccc1)[C@@H](C)CC` [Example 9] (Propionyl-[2Nal]-Ile-Lys-NHPh), under setting [2], the IC50 was > 10000 nM.
In the case of `CCC(=O)N[C@@H](Cc1nc2ccc(C(C)C)cc2s1)C(=O)N[C@H](Cn1cc(CN)nn1)C1CCCCC1` [Example 82], under setting [1], the IC50 came to 243 nM.
Take `CCC(=O)N[C@@H](Cc1nc2ccc(C(C)C)cc2s1)C(=O)N[C@H](C(=O)N[C@@H](CCCCN)C(N)=O)C1CCCCC1` [Example 291]: the IC50 under setting [1] came to 116 nM.
Same read-out and setting: then `CCC(=O)N[C@H](CNC(=O)C1(N)CCCCC1)Cc1nc2ccc(C(C)C)cc2s1` [Example 110], with 1900 nM; and `CC(C)c1ccc2nc(C[C@H](NC(=O)C3CC3)C(=O)N[C@H](CN)C3CCCCC3)sc2c1` [Example 262], with 155 nM.
On to `CCC(=O)N[C@@H](Cc1cn2cc(Cl)ccc2n1)C(=O)N[C@H](C(=O)N[C@@H](CCCCN)C(=O)N[C@@H]1CCOc2ccccc21)C1CCCC1` [Example 212], for which the IC50 under setting [1] worked out at 55.6 nM.
Still for that read-out and setting: then `CCC(=O)N[C@@H](Cc1nc2ccc(C)cc2s1)C(=O)N[C@H](C(=O)N[C@@H](CCCCN)C(=O)N[C@@H]1CCOc2ccccc21)C1CCCC1` [Example 175], with 90.6 nM.
With `CCC(=O)N[C@@H](Cc1nc(CC)c(-c2ccccc2)s1)C(=O)N[C@H](CN)Cc1ccccc1` [Example 225], the half-maximal inhibitory concentration (IC50) under setting [2] was > 3000 nM.
`CCC(=O)N[C@H](CNC(=O)c1ccccc1)Cc1nc2ccc(Cl)cc2s1` [Example 252]: under setting [1], the IC50 stood at 1840 nM.
Take `CCC(=O)N[C@@H](Cc1nc(C)c(-c2cccc(C#N)c2)s1)C(=O)N[C@H](CN)Cc1ccccc1` [Example 231]: the IC50 under setting [2] was > 10000 nM.
Take `CCC(=O)N[C@@H](Cc1nc2ccc(Cl)cc2s1)C(=O)N[C@H](C(=O)N[C@@H](CCCCN)C(=O)N[C@@H]1CCOc2ccccc21)C1CCCC1` [Example 33]: the IC50 under setting [1] was 103 nM.
As for `CCC(=O)N[C@@H](Cc1ccc2ccccc2c1)C(=O)N[C@@H](CC(F)(F)F)C(=O)N[C@@H](CCCCN)C(=O)NC(c1ccccc1)c1ccccc1` [Example 23], the IC50 under setting [2] is > 1000 nM.
Regarding `CCC(=O)N[C@@H](Cc1nc2ccc(OC)cc2o1)C(=O)N[C@H](C(=O)N[C@@H](CCCCN)C(=O)NC(c1ccccc1)c1ccccc1)[C@@H](C)CC` [Example 157], the IC50 under setting [1] is 265 nM.
Turning to `CC(C)CC(C)C(=O)N[C@@H](Cc1nc2ccc(C(C)C)cc2s1)C(=O)NCCN` (some centres unmarked) [97 & 98], under setting [2], the IC50 was > 10000 nM.
In the case of `CCC(=O)N[C@@H](Cc1nc2ccc(C(C)C)cc2s1)C(=O)N[C@H](C(=O)N[C@@H](CCCCN)C(=O)N[C@@H](CC(C)C)C(N)=O)C1CCNCC1` [Example 288] (Propionyl-[Ala(6-iPr-benzothiazol-2-yl)][Gly(piperidin-4-yl)]KL-NH2), the IC50 under setting [2] was > 10000 nM.
With `CCC(=O)N[C@@H](Cc1nc2ccc(C(C)C)cc2s1)C(=O)N[C@H](C(=O)N[C@@H](CCCCN)C(=O)N[C@@H](CC(C)C)C(N)=O)C1CCCC1` [Example 285] (Propionyl-[Ala(6-iPr-benzothiazol-2-yl)][Gly(cPent)]KL-NH2), under setting [1], the IC50 was < 100 nM.
`CCC(=O)N[C@H](Cc1ccc2ccccc2c1)C(=O)N[C@H](C(=O)N[C@@H](CCCCN)C(=O)NC(c1ccccc1)c1ccccc1)C1CCCC1` [Example 145]: the half-maximal inhibitory concentration (IC50) under setting [2] is > 10000 nM.
Take `CCC(=O)N[C@@H](Cc1nc2ccc(Cl)cc2s1)C(=O)N[C@H](C(=O)N[C@@H](CCCCN)C(=O)N[C@@H]1CNCc2ccccc21)C1CCCC1` [Example 39]: under setting [1], the IC50 is 173 nM.
On to `CCC(=O)N[C@@H](Cc1ccc2ccccc2c1)C(=O)N[C@H](C(=O)N[C@@H](CCCCN)C(=O)NC(c1ccc(F)cc1)c1ccc(F)cc1)C1CCCC1` [Example 138], for which the IC50 under setting [1] is 1750 nM.
On to `CCC(=O)N[C@@H](Cc1nc2ccc(Cl)cc2o1)C(=O)N[C@H](C(=O)N[C@@H](CCCCN)C(=O)NC(c1ccccc1)c1ccccc1)[C@@H](C)CC` [Example 156], for which the IC50 under setting [1] is 194 nM.
For `CC[C@H](C)[C@H](NC(=O)[C@H](Cc1ccc2ccccc2c1)NC(C)=O)C(=O)N[C@@H](CCCCN)C(=O)N[C@@H](CC(C)C)C(N)=O` [Example 1] (Ac-[2Nal]IKL-NH2), the IC50 under setting [2] was > 10000 nM.
Take `CCC(=O)N[C@@H](Cc1nc2ccc(Cl)cc2s1)C(=O)N[C@H](CNC(=O)[C@@H](C)CN1CCOCC1)Cc1ccccc1` [Example 227]: under setting [1], the IC50 turned out to be 471 nM.
On to `CC[C@H](C)[C@H](NC(=O)[C@H](Cc1ccc2ccccc2c1)NC(=O)[C@@H](C)O)C(=O)N[C@@H](CCCCN)C(=O)N[C@@H](CC(C)C)C(N)=O` [Example 167] (H-[dLac][2Nal]IKL-NH2), for which the IC50 under setting [2] is > 10000 nM.
Regarding `CCC(=O)N[C@@H](Cc1nc2ccc(Cl)cc2s1)C(=O)N[C@H](C(=O)N[C@@H](CCCCN)C(=O)N[C@@H]1CCCc2ccccc21)C1CCCC1` [Example 32], the IC50 under setting [1] turned out to be 157 nM.
The same measure, in the same setting: in the case of `CCC(=O)N[C@@H](Cc1nc2ccc(C(C)C)cc2s1)C(=O)N[C@H](CNC(=O)c1cn(C)cn1)C1CCCCC1` [Example 66] it was 299 nM; in that of `CCC(=O)N[C@@H](Cc1ccc2ccccc2c1)C(=O)N[C@H](C(=O)N[C@@H](CCCCN)C(=O)N[C@@H]1CCOc2ccccc21)[C@@H](C)CC` [Example 17], 651 nM.
Regarding `CCC(=O)N[C@H](CNC(=O)[C@H]1CCCCN1)Cc1nc2ccc(C(C)C)cc2s1` [Example 270], under setting [2], the IC50 was > 10000 nM.
With `CCC(=O)N[C@@H](Cc1nc(C)c(-c2ccccc2Cl)s1)C(=O)N[C@H](CN)Cc1ccccc1` [Example 104], the IC50 under setting [2] is > 10000 nM.
Take `CCC(=O)N[C@@H](Cc1nc2ccc(C)cc2s1)C(=O)N[C@H](C(=O)N[C@@H](C[C@H]1CC[C@H](CN)CC1)C(=O)N[C@@H]1CCOc2ccccc21)C1CCOCC1` [Example 189]: the IC50 under setting [1] worked out at 230 nM.
As for `CCC(=O)N[C@H](CNC(=O)[C@@H]1CCCCN1)Cc1nc2ccc(C(C)C)cc2s1` [Example 118], the IC50 under setting [1] amounted to 3110 nM.
Consider `CCC(=O)N[C@@H](Cc1nc2ccc(Cl)cc2s1)C(=O)N[C@H](C(=O)N[C@@H](CCCCN)C(=O)NCc1ccccn1)C1CCOCC1` [Example 241], for which the IC50 under setting [1] came out at 913 nM.
For the compound `CCC(=O)N[C@H](Cc1nc2ccc(Cl)cc2s1)C(=O)N[C@H](C(=O)N[C@@H](CCCCN)C(=O)N[C@@H]1CCOc2ccccc21)C1CCOCC1` [Example 199], the IC50 under setting [2] was > 10000 nM.
Regarding `CCC(=O)N[C@@H](Cc1nc2ccc(C)cc2s1)C(=O)N[C@H](CN)[C@@H](C)CC` [Example 214], the IC50 under setting [1] was 491 nM.
Regarding `CCC(=O)N[C@@H](Cc1ccc2ccccc2c1)C(=O)N[C@H](C(=O)N[C@@H](CCCCN)C(=O)N[C@@H](CN)c1ccccc1)C1CCCC1` [Example 151], under setting [2], the IC50 was > 10000 nM.
With `CCC(=O)N[C@@H](Cc1ccc2ccccc2c1)C(=O)N[C@H](C(=O)N[C@@H](CCCCN)C(=O)N[C@@H]1CNCc2ccccc21)C1CCCC1` [Example 160], the IC50 under setting [1] was 457 nM.
With `CCC(=O)N[C@@H](Cc1nc2ccc(C(C)C)cc2s1)C(=O)N[C@H](C(=O)N[C@@H](CCCCN)C(=O)N[C@@H]1CCOc2ccccc21)C1CCOCC1` [Example 206], the IC50 under setting [1] was determined as 42.9 nM.
Regarding `CCC(=O)N[C@@H](Cc1nc(C)c(-c2cccc(Cl)c2)s1)C(=O)N[C@H](CN)C1CCCCC1` [Example 107], the IC50 under setting [1] was determined as 704 nM.
Take `CC[C@H](C)[C@@H](CN)NC(=O)[C@H](Cc1nc2ccc(C(C)C)cc2s1)NC(=O)C(C)C` [Example 50, (S)—N-((2S,3S)-1-amino-3-methylpentan-2-yl)-2-isobutyramido-3-(6-isopropylbenzo[d]thiazol-2-yl)propanamide]: the IC50 under setting [1] worked out at 255 ± 29 nM.
